Data: ChEMBL document CHEMBL1201862, “PubChem BioAssay data set” (2004)
Active and inactive are the calls of the source.

Experiments:
[1] = viability of PTEN-deleted HCT116 cells – cell-based, HCT116 PTEN knockout, dose response (AID 1047); type: functional;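 further: HCT116 colon tumor cells with PTEN knocked out; cells exposed to compound for 60 hours before readout; potency for loss of cell viability measured by luminescence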
[2] = viability of HCT116 lacking mutant beta-catenin – cell-based, human colon tumor, dose response (AID 1045); type: functional;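 further: HCT116 colon tumor cells with beta catenin knocked out; cells exposed to compound for 60 hours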
[3] = luciferase reporter signal suppression in cells – H4 neuroglioma cells, luminescence, dose response (AID 1990); type: functional, cell-based
[4] = Luminescence Cell-Based Dose Response HTS to Identify Inhibitors of 5'UTR Stem-Loop Driven Prion Protein mRNA Translation in H4 Neuroglioblastoma Cells. [Related pubchem assays: 1827 (Project Summary), 1813 (Primary HTS)]; type: functional
[5] = alpha-synuclein stem-loop luciferase translation blockers – H4 neuroglioma cells, luminescence, confirmation (AID 1988); type: functional, cell-based
[6] = target: T1, Carboxy-terminal domain RNA polymerase II polypeptide A small phosphatase 1 (Homo sapiens, UniProt Q9GZU7); experiment: CTDSP1 inhibitors, concentration-response, biochemical, absorbance readout, ultra-high-throughput screen actives (AID 540297); type: functional
T1 sequence (Q9GZU7 whole entry): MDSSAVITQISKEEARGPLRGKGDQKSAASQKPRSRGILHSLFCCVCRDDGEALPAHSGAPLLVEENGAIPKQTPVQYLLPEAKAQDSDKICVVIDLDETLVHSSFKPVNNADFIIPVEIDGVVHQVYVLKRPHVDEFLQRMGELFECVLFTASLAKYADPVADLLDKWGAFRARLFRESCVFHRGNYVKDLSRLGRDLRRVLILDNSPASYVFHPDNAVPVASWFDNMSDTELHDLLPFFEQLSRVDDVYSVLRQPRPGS

[7] = cells; type: functional
[8] = target: T2, Cytochrome P450 1A2 (Homo sapiens, UniProt P05177);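 further: PubChem cytochrome P450 panel assay, CYP1A2 panel member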
T2 sequence (P05177 whole entry): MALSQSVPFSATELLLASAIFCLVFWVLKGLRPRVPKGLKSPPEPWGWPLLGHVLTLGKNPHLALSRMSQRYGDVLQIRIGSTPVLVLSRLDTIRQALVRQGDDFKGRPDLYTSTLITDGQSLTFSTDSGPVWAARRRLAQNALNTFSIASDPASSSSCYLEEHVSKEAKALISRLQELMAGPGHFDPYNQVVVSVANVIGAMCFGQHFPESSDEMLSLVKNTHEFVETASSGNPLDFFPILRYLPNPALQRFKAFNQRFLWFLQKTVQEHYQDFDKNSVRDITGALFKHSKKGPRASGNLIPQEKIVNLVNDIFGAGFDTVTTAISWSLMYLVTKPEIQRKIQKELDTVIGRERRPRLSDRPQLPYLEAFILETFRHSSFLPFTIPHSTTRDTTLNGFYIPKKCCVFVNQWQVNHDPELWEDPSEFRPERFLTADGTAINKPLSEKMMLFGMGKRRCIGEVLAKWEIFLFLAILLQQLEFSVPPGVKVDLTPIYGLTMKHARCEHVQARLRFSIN

[9] = target: Cytochrome P450 2D6 (Homo sapiens, UniProt P10635);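 further: CYP2D6 member of a cytochrome P450 panel assay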
Sequence of Cytochrome P450 2D6 (P10635 whole entry): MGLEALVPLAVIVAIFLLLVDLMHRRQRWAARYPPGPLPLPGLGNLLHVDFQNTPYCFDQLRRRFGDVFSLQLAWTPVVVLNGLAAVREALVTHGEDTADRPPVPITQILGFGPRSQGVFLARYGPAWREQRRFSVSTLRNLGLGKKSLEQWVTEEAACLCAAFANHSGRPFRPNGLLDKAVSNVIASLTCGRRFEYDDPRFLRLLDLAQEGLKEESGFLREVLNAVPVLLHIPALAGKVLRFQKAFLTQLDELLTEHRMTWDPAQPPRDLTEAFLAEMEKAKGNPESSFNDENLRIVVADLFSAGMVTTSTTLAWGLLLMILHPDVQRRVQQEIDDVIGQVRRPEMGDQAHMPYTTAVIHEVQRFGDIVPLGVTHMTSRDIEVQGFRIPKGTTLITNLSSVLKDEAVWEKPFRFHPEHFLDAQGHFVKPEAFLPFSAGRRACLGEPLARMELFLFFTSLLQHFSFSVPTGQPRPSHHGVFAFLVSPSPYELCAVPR

[10] = target: T3, Polyadenylate-binding protein 1 (Homo sapiens, UniProt P11940); experiment: MLLE binding blockers, Cy5 peptide tracer – biochemical, fluorescence polarization, Cy5-PAM2 peptide, secondary, miRNA deadenylation inhibitor project, dose response (AID 602260); type: functional; conditions: read-out: IC50_Mean
T3 sequence (P11940 whole entry, the tested form may be a part): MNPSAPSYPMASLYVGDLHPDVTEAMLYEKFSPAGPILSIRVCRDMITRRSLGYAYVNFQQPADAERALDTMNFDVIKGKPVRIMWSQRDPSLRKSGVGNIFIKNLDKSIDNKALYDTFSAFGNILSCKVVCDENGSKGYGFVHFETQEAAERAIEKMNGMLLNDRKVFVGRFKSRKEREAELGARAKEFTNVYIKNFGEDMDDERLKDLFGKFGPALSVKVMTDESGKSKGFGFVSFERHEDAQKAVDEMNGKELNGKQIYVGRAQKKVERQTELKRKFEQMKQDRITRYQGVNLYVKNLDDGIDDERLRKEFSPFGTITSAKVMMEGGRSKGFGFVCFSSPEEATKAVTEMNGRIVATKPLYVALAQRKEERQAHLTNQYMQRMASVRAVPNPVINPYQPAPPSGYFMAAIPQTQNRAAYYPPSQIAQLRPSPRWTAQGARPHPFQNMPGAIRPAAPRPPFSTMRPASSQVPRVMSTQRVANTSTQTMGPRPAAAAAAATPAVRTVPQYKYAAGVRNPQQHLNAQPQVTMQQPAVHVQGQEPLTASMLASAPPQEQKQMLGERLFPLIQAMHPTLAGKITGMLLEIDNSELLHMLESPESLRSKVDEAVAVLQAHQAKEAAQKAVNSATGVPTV

[11] = target: T3, Polyadenylate-binding protein 1; experiment: MLLE domain peptide-binding blockers, IC50 – biochemical, fluorescence polarization, FITC-PAM2 peptide, dose response (AID 602259); type: functional; conditions: read-out: IC50_Mean
[12] = target: Cytochrome P450 2C19 (Homo sapiens, UniProt P33261); experiment: Cytochrome panel assay with activity outcomes. Panel member name: p450-cyp2c19 Compounds with AC50 equal or less than 10 uM are considered active; type: functional; conditions: read-out: AC50
Sequence of Cytochrome P450 2C19 (P33261 whole entry): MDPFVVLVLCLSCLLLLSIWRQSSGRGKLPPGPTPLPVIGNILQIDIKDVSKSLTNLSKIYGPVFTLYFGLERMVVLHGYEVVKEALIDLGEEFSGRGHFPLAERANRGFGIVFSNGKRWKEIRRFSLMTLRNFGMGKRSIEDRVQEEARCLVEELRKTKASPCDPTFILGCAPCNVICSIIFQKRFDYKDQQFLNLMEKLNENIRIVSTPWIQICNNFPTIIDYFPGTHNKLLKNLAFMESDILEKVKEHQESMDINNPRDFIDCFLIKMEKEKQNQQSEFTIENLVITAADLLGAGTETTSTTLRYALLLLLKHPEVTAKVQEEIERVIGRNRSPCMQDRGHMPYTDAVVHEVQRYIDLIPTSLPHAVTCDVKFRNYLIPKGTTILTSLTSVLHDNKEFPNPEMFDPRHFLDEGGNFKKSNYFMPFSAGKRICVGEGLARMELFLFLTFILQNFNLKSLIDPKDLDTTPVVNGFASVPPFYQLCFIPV

[13] = target: Cytochrome P450 2C9 (Homo sapiens, UniProt P11712)
Sequence of Cytochrome P450 2C9 (P11712 whole entry): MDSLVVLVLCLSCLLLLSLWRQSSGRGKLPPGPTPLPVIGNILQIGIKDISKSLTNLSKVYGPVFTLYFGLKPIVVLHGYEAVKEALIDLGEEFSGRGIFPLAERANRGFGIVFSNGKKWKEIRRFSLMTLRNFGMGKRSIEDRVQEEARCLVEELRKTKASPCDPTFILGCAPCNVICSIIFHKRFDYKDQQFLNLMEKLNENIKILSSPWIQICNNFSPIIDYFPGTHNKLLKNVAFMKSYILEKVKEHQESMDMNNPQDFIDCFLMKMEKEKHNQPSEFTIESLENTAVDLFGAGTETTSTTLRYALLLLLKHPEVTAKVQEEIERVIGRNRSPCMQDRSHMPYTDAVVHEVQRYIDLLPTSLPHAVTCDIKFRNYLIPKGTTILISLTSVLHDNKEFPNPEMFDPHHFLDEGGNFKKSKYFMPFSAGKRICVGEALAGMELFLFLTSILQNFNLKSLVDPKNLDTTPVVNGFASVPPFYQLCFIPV

[14] = target: Cytochrome P450 3A4 (Homo sapiens, UniProt P08684);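 further: CYP3A4 tested as one member of a cytochrome P450 panel screen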
Sequence of Cytochrome P450 3A4 (P08684 whole entry): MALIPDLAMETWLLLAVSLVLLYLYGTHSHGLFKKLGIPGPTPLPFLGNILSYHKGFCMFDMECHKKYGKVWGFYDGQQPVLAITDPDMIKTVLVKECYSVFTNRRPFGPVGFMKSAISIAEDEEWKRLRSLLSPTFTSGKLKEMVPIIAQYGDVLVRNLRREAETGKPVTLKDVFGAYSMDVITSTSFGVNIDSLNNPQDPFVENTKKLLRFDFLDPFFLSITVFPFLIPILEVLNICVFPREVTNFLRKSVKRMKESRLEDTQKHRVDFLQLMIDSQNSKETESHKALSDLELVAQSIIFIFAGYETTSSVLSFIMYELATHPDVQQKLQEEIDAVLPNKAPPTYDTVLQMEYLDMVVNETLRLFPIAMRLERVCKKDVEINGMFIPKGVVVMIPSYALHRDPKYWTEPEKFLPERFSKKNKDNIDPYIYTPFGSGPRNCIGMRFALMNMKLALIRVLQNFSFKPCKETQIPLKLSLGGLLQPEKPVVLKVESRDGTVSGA

For COC(=O)c1c(NC(=O)c2ccc(S(=O)(=O)N3CCOCC3)cc2)sc2c1CCN(C)C2, the EC50 [1] was 23.8 µM (active) and the EC50 [2] was 14.9 µM (active).

In the case of CC(C)(C)C1CCc2onc(C(=O)Nc3cnn(Cc4ccc(F)cc4)c3)c2C1 (stereo not drawn), the EC50 [3] is reported as 28.2 µM (active), the EC50 [4] is reported as 23.3 µM (active) and the EC50 [5] is reported as > 120 µM (not active).

With O=C(CSc1nc2ccccc2[nH]1)NC1CCCC1 the IC50 [6] was 6.85 µM (active).

For CCCC(=O)Nc1cccc(-c2nc3ccccc3c(=O)o2)c1, the IC50 [7] was 10.4 µM (active).

For O=C1C=C(O)c2cccc(O)c2C1=O, the IC50 [6] was 44.5 µM (active).

For O=C1c2c(O)cc(O)cc2O[C@@H](c2ccc(O)c(O)c2)[C@H]1O [(+)-EPITAXIFOLIN], the AC50 [8] was 15.8 µM (inconclusive).

For CCOC(=O)c1cc(-c2ccccc2)nc2nc(N3CCCCC3)sc12, the EC50 [3] was 14.8 µM (active), the EC50 [4] was 24.3 µM (active) and the EC50 [5] was 103 µM (active).

In the case of C#CCN1C(=O)C(O)(CC(=O)c2cccc(OC)c2)c2ccccc21 (stereo not drawn), the EC50 [1] is reported as 19.2 µM (active) and the EC50 [2] is reported as 19.3 µM (active).

For Cc1cc([C@](C)(N)C(=O)O)ccc1P(=O)(O)O, the AC50 [8] was 31.6 µM (inconclusive) and the AC50 [9] was 12.6 µM (inconclusive).

With O=C(CSC1=NC2(CCCCC2)N=C1c1ccccc1)Nc1ccc2c(c1)OCCO2 the IC50 [10] was > 66 µM (inactive) and the IC50 [11] was > 66 µM (inactive).

With Cc1nc2ccccn2c1C(=O)C1=C(O)C(=O)N(CCN(C)C)C1c1ccco1 (stereo not drawn) the IC50 [10] was > 66 µM (inactive) and the IC50 [11] was > 66 µM (inactive).

With O=C(Nc1ccccc1F)c1cc(-c2ccco2)nc2ccccc12 the IC50 [6] was 8.25 µM (active).

With CCOC(=O)c1cc(COc2cc(Cl)cc(Cl)c2)on1 the IC50 [7] was 1.97 µM (active).

For Cc1noc(C)c1-c1cncnc1NCCN1CCOCC1, the AC50 [12] was 0.0398 µM (inconclusive) and the AC50 [8] was 31.6 µM (inconclusive).

With Cc1ccc(C2=[N+]([O-])C3(CCCCC3=O)N(O)C2(C)C)cc1 (stereo not drawn) the EC50 [3] was > 120 µM (not active), the EC50 [4] was > 120 µM (not active) and the EC50 [5] was 42.6 µM (active).

In the case of CC1CC(C)CN(C(=O)CNS(=O)(=O)c2ccc(Br)s2)C1 (stereo not drawn), the AC50 [13] is reported as 10 µM (inconclusive), the AC50 [14] is reported as 11.2 µM (inconclusive) and the AC50 [8] is reported as 15.8 µM (inconclusive).

With Cc1cc(NC(=O)CSc2sc3c(O)cc(=O)[nH]c3c2C#N)ccc1Br the IC50 [6] was 3.74 µM (active).

For O=C(/C=C/c1cccc(OCc2ccccc2)c1)c1cccnc1, the EC50 [1] was 5.59 µM (active) and the EC50 [2] was 3.79 µM (active).

For CCCOC(=O)c1ccc(NC(=O)c2ccccc2OC)cc1, the IC50 [7] was 11.3 µM (active).

For Cc1nn(C(C)(C)C)c(OC(=O)c2ccco2)c1Sc1ccccc1, the AC50 [14] was 39.8 µM (inconclusive) and the AC50 [8] was 14.1 µM (inconclusive).

In the case of Cc1onc(-c2c(F)cccc2Cl)c1C(=O)NC(=S)Nc1c(C)n(C)n(-c2ccccc2)c1=O, the IC50 [10] is reported as > 66 µM (inactive) and the IC50 [11] is reported as > 66 µM (inactive).
